Data taken from PubChem BioAssay AID248 (DTP/NCI, 2004).
“And” between values parts separate entries of the source, which are not always exact repeats. Equal entries are not always repeated. Toxic doses and inconclusive results are not listed. Cut-off read from the data, not from the text of the source: active = T/C of 150% or more; inactive = T/C below 125%.

Tested on: L1210 leukemia ip in BDF1 mice, survival T/C
Assay: NCI In Vivo Anticancer Drug Screen. Data for tumor model L1210 Leukemia (intraperitoneal) in B6D2F1 (BDF1) mice
Conditions: endpoint: mean survival time, higher = longer survival
Outline: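 Read-out is survival time, reported as the treated-group measurement over the vehicle-control measurement.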

[1] = dose: 50.0 mg/kg/injection, schedule: Q04DX002 (ip), vehicle: Klucel (hydroxypropylcellulose) (HPC)
[2] = dose: 200.0 mg/kg/injection, schedule: Q04DX002 (ip), vehicle: Klucel (hydroxypropylcellulose) (HPC)
[3] = dose: 400.0 mg/kg/injection, schedule: Q04DX002 (ip), vehicle: Klucel (hydroxypropylcellulose) (HPC)
[4] = dose: 25.0 mg/kg/injection, schedule: Q04DX003 (ip), vehicle: Klucel (hydroxypropylcellulose) (HPC)
[5] = dose: 50.0 mg/kg/injection, schedule: Q04DX003 (ip), vehicle: Klucel (hydroxypropylcellulose) (HPC)
[6] = dose: 100.0 mg/kg/injection, schedule: Q04DX003 (ip), vehicle: Klucel (hydroxypropylcellulose) (HPC)
[7] = dose: 200.0 mg/kg/injection, schedule: Q04DX003 (ip), vehicle: Klucel (hydroxypropylcellulose) (HPC)
[8] = dose: 100.0 mg/kg/injection, schedule: Q04DX003 (ip), vehicle: saline
[9] = dose: 100.0 mg/kg/injection, schedule: Q04DX002 (ip), vehicle: Klucel (hydroxypropylcellulose) (HPC)
[10] = dose: 100.0 mg/kg/injection, schedule: Q01DX009 (ip), vehicle: Klucel (hydroxypropylcellulose) (HPC)
[11] = dose: 200.0 mg/kg/injection, schedule: Q01DX009 (ip), vehicle: Klucel (hydroxypropylcellulose) (HPC)
[12] = dose: 400.0 mg/kg/injection, schedule: Q01DX009 (ip), vehicle: Klucel (hydroxypropylcellulose) (HPC)
[13] = dose: 400.0 mg/kg/injection, schedule: Q04DX003 (ip), vehicle: Klucel (hydroxypropylcellulose) (HPC)
[14] = dose: 100.0 mg/kg/injection, schedule: Q01DX001 (ip), vehicle: saline
[15] = dose: 200.0 mg/kg/injection, schedule: Q01DX001 (ip), vehicle: saline
[16] = dose: 400.0 mg/kg/injection, schedule: Q01DX001 (ip), vehicle: saline
[17] = dose: 200.0 mg/kg/injection, schedule: Q04DX003 (ip), vehicle: saline
[18] = dose: 400.0 mg/kg/injection, schedule: Q04DX003 (ip), vehicle: saline
[19] = dose: 100.0 mg/kg/injection, schedule: Q04DX003 (ip), vehicle: saline with Tween-80

Measured: T/C

O=C1OC2CCCCC2/C1=C/N1CCCCC1 (configuration not stated)
inactive: dose: 5.0 mg/kg/injection, schedule: Q04DX002 (ip), vehicle: Klucel (hydroxypropylcellulose) (HPC) 92 % of control | dose: 10.0 mg/kg/injection, schedule: Q04DX002 (ip), vehicle: Klucel (hydroxypropylcellulose) (HPC) 102 % of control | dose: 20.0 mg/kg/injection, schedule: Q04DX002 (ip), vehicle: Klucel (hydroxypropylcellulose) (HPC) 107 % of control | dose: 40.0 mg/kg/injection, schedule: Q04DX002 (ip), vehicle: Klucel (hydroxypropylcellulose) (HPC) 93 % of control | [1] 103 % of control | [2] 102 % of control and 103 % of control | [3] 88 % of control

O=C(O)c1ccc2c(ccc3ccc4ccccc4c32)c1
inactive: dose: 12.5 mg/kg/injection, schedule: Q04DX003 (ip), vehicle: Klucel (hydroxypropylcellulose) (HPC) 100 % of control | [4] 89 % of control | [5] 96 % of control | [6] 97 % of control | [7] 106 % of control

Cc1ccc(S(=O)(=O)NCl)cc1
inactive: [8] 99 % of control

CCCCCC(Oc1ccc(Cl)cc1)C(=O)O (configuration not stated)
inactive: [6] 104 % of control | [7] 98 % of control

COC(=O)c1ccc(C(=O)OC)nc1
inactive: [1] 106 % of control | [9] 95 % of control | [2] 103 % of control

COc1ccc(NC(=O)Nc2cc(C)ccc2C)cc1
inactive: [10] 89 % of control | [6] 93 % of control | [11] 86 % of control | [7] 93 % of control | [12] 92 % of control | [13] 87 % of control

COC(=O)C=P(c1ccccc1)(c1ccccc1)c1ccccc1
inactive: dose: 75.0 mg/kg/injection, schedule: Q01DX001 (ip), vehicle: carboxymethylcellulose (CMC) 98 % of control | dose: 150.0 mg/kg/injection, schedule: Q01DX001 (ip), vehicle: carboxymethylcellulose (CMC) 98 % of control | dose: 300.0 mg/kg/injection, schedule: Q01DX001 (ip), vehicle: carboxymethylcellulose (CMC) 101 % of control

Nc1ccc(CCCC(=O)Nc2ccc(S(=O)(=O)F)cc2)cc1
inactive: [14] 101 % of control | [15] 97 % of control | [16] 103 % of control

Nc1ccc2c(ccc3cccc[n+]32)c1
inactive: [14] 105 % of control | [15] 108 % of control

O=C(Nc1ccccc1)c1cc(N2CCOCC2)ccn1
inactive: [14] 97 % of control | [15] 95 % of control | [16] 91 % of control

C#CC(C)(C)N1CCCCC1
inactive: [4] 110 % of control | [5] 106 % of control

O=C1c2cccc3cc([N+](=O)[O-])cc(c23)C(=O)N1CCc1ccccn1
inactive: [9] 94 % of control | [2] 102 % of control | [3] 108 % of control

Cc1nc(=S)[nH][nH]1
inactive: dose: 100.0 mg/kg/injection, schedule: Q01DX009 (ip), vehicle: saline with Tween-80 102 % of control | dose: 100.0 mg/kg/injection, schedule: Q04DX002 (ip), vehicle: saline 103 % of control | dose: 200.0 mg/kg/injection, schedule: Q01DX009 (ip), vehicle: saline with Tween-80 122 % of control | dose: 200.0 mg/kg/injection, schedule: Q04DX002 (ip), vehicle: saline 94 % of control | dose: 400.0 mg/kg/injection, schedule: Q01DX009 (ip), vehicle: saline with Tween-80 96 % of control | dose: 400.0 mg/kg/injection, schedule: Q04DX002 (ip), vehicle: saline 87 % of control

COC(=O)C1(C)CCc2c(ccc3ccccc23)C1=O (configuration not stated)
inactive: dose: 100.0 mg/kg/injection, schedule: Q01DX009 (ip), vehicle: saline 100 % of control | [8] 97 % of control | dose: 200.0 mg/kg/injection, schedule: Q01DX009 (ip), vehicle: saline 102 % of control | [17] 94 % of control | dose: 400.0 mg/kg/injection, schedule: Q01DX009 (ip), vehicle: saline 99 % of control | [18] 102 % of control

CCOC(=O)C1SC(N)=NC1=O (configuration not stated)
inactive: [19] 94 % of control | dose: 200.0 mg/kg/injection, schedule: Q04DX003 (ip), vehicle: saline with Tween-80 90 % of control

COC(=O)c1csc(CCN)n1
inactive: [8] 102 % of control | [17] 94 % of control | [18] 97 % of control

O=C(Nc1ccccc1C(F)(F)F)c1ccc(F)cc1
inactive: dose: 100.0 mg/kg/injection, schedule: Q01DX001 (ip), vehicle: Klucel (hydroxypropylcellulose) (HPC) 99 % of control | [10] 95 % of control and 103 % of control | [9] 98 % of control and 121 % of control | [6] 105 % of control | dose: 200.0 mg/kg/injection, schedule: Q01DX001 (ip), vehicle: Klucel (hydroxypropylcellulose) (HPC) 95 % of control | [11] 94 % of control and 95 % of control | [2] 100 % of control and 101 % of control | [7] 100 % of control | dose: 400.0 mg/kg/injection, schedule: Q01DX001 (ip), vehicle: Klucel (hydroxypropylcellulose) (HPC) 104 % of control | [12] 95 % of control and 97 % of control | [3] 96 % of control and 100 % of control | [13] 113 % of control

COC(=O)c1c(C)cc(OC(=O)c2c(C)cc(OC)c(C)c2OC)c(C)c1O
inactive: dose: 50.0 mg/kg/injection, schedule: Q01DX001 (ip), vehicle: other 103 % of control | dose: 100.0 mg/kg/injection, schedule: Q01DX001 (ip), vehicle: other 97 % of control | dose: 200.0 mg/kg/injection, schedule: Q01DX001 (ip), vehicle: other 92 % of control | dose: 400.0 mg/kg/injection, schedule: Q01DX001 (ip), vehicle: other 92 % of control

OCC12C=CC(CC1)CC2
inactive: dose: 75.0 mg/kg/injection, schedule: Q04DX002 (ip), vehicle: gum acacia 92 % of control | dose: 150.0 mg/kg/injection, schedule: Q04DX002 (ip), vehicle: gum acacia 100 % of control | dose: 300.0 mg/kg/injection, schedule: Q04DX002 (ip), vehicle: gum acacia 92 % of control

C[C@@H]1CC[C@@]2(OC1)O[C@H]1C[C@H]3[C@@H]4CC=C5C(C)(C)C(=O)C(O)=C[C@]5(C)[C@H]4CC[C@]3(C)[C@H]1[C@@H]2C
inactive: dose: 100.0 mg/kg/injection, schedule: Q04DX003 (sc), vehicle: steriod suspending solution 98 % of control | dose: 200.0 mg/kg/injection, schedule: Q04DX003 (sc), vehicle: steriod suspending solution 110 % of control | dose: 400.0 mg/kg/injection, schedule: Q04DX003 (sc), vehicle: steriod suspending solution 98 % of control

CCCCCCCCCCCCCCC(F)C(=O)OCC1OC(CO)(OC2OC(CO)C(O)C(O)C2O)C(O)C1O (configuration not stated)
inactive: dose: 25.0 mg/kg/injection, schedule: Q01DX009 (ip), vehicle: saline with Tween-80 98 % of control | dose: 50.0 mg/kg/injection, schedule: Q01DX009 (ip), vehicle: saline with Tween-80 100 % of control | [19] 107 % of control
